Experimental data taken from article PMC3940698 (PLoS ONE, 2014).
Where two headings read alike, the source gives them in different places. Each block holds one compound with its values, some of them ahead of it.

Key:
CYP2E1 [1] = target: T1, CYP2E1 (Homo sapiens, UniProt P05181); experiment: CYP2E1 baculosomes, pNP reaction; conditions: for Ki, Cheng-Prusoff method (in words): pNP reactions, CYP2E1 baculosomes, inhibitor 10 nM
[2] = test system: various CYPs tested (CYP2C9, CYP3A4, CYP2D6, CYP2E1); experiment: Ki of BzBr for the various CYPs tested (baculosomes, Diclof or pNP); conditions: equivalent substrate-BzBr concentrations
[3] = test system: rat liver microsomes (mixed CYPs); experiment: Rat liver microsomes, diclofenac hydroxylation, inhibition; assay type: biochemical; conditions: for Global Ki, non-linear regression: KM taken as 10 µM
Source text: In some reactions, another method was used.

CYP2E1 [4] = target: T1, CYP2E1
CYP2C9 [5] = target: T2, CYP2C9 (Homo sapiens, UniProt P11712); conditions: ref [4]-[6]; cited from earlier work
T2 construct: purchased Life Technologies (and Panvera), Invitrogen

CYP2C9 [6] = target: T2, CYP2C9; experiment: CYP2C9 baculosomes, diclofenac hydroxylation, inhibition; assay type: biochemical; conditions: for Ki / Localized Ki, Chance equation / Localized Ki, Cheng-Prusoff equation / Global Ki, linear regression / Global Ki, non-linear regression: CYP2C9+Diclof;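 on all read-outs here: reactions run at 27 °C in 100 mM potassium phosphate, pH 7.4, in a 250 µl volume, with hydroxylated product quantified from HPLC peak areas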
CYP2D6 = target: T3, CYP2D6 (Homo sapiens, UniProt P10635); experiment: CYP2D6 baculosomes, diclofenac or pNP product formation; assay type: biochemical; conditions: CYP2D6 baculosomes 20 nM, inhibitor equivalent amount, 30 minutes
T3 construct: host or cells: baculosomes

CYP3A4 = target: T4, CYP3A4 (Homo sapiens, UniProt P08684); experiment: CYP3A4 baculosomes, diclofenac or pNP product formation; assay type: biochemical; conditions: CYP3A4 baculosomes 20 nM, inhibitor equivalent amount, 30 minutes
T4 construct: host or cells: baculosomes

[7] = Microsomes+Diclof, 0.5 µM CYP, 200 µM diclofenac, 400 µM NADPH
[8] = [I] 0.01 µM, read-out: Localized Ki, Chance equation
[9] = [I] 0.01 µM, read-out: Localized Ki, Cheng-Prusoff equation
[10] = [I] 1 µM, read-out: Localized Ki, Chance equation
[11] = [I] 1 µM, read-out: Localized Ki, Cheng-Prusoff equation
[12] = [I] 100 µM, read-out: Localized Ki, Cheng-Prusoff equation
[13] = 10 nM CYP, 100 µM diclofenac, 200 µM NADPH
[14] = KM taken as 10 µM, 10 nM CYP, 100 µM diclofenac, 200 µM NADPH

T2 sequence (P11712 whole entry): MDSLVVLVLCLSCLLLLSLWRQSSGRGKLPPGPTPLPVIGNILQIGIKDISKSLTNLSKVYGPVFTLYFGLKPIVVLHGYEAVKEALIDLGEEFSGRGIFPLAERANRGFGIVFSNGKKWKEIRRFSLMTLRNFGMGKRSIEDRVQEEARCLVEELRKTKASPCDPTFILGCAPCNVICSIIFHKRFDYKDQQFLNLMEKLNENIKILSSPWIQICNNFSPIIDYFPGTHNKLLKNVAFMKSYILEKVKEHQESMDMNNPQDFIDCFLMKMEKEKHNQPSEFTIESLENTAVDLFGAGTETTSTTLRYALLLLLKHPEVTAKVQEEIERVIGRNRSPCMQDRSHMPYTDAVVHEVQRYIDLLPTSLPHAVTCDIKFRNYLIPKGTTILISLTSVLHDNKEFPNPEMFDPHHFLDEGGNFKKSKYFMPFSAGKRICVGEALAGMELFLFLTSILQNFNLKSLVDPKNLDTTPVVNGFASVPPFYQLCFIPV
T1 sequence (P05181 whole entry): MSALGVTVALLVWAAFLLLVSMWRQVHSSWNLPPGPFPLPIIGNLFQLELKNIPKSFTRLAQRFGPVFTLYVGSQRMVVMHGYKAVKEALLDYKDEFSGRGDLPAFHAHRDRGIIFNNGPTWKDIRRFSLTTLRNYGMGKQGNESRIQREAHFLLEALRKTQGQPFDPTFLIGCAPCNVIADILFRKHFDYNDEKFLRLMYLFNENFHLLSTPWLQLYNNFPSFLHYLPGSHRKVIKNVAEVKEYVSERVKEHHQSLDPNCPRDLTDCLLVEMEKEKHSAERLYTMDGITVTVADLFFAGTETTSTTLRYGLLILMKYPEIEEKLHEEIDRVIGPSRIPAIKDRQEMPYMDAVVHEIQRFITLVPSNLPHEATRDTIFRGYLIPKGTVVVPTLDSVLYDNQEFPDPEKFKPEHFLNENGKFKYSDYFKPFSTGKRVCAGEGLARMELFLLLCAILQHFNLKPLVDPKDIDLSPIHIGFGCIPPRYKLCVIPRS
T4 sequence (P08684 2-503 limits assumed): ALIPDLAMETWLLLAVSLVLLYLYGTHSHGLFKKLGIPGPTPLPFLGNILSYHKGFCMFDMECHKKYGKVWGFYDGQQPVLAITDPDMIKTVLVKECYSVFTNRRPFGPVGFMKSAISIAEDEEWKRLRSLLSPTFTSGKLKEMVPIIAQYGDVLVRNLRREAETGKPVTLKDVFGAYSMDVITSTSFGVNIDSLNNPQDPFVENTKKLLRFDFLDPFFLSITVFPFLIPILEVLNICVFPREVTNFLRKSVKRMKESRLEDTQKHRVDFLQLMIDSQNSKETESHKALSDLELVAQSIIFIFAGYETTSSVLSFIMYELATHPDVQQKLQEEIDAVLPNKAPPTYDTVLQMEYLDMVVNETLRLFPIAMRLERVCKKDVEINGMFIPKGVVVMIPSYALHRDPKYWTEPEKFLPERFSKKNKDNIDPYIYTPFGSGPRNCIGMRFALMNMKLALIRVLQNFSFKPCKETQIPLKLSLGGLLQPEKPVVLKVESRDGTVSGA
T3 sequence (P10635 whole entry): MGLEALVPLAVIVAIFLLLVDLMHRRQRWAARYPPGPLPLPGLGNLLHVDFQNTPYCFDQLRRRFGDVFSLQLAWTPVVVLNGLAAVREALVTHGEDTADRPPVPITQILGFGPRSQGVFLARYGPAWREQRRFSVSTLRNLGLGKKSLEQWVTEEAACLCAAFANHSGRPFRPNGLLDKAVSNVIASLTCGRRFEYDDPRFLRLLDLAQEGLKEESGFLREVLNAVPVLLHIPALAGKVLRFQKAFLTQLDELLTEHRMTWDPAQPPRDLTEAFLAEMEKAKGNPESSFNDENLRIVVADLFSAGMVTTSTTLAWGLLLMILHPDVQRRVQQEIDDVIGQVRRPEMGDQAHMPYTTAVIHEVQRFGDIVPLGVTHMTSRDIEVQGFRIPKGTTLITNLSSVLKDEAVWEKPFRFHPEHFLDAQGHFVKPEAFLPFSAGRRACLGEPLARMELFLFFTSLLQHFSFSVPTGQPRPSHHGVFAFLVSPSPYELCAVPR

Compound: CCc1oc2ccccc2c1C(=O)c1cc(I)c(O)c(I)c1 [BzIr, benziodarone]
- Ki, Cheng-Prusoff method (in words) (CYP2E1 [4]): low nM ranges
- Ki (CYP2C9 [5]): ≤ 1 nM
- Global Ki, linear regression [3, 7]: -
- Global Ki, non-linear regression [3, 7]: -
- Ki (CYP2C9 [6]; 10 nM CYP, 100 µM diclofenac, 200 µM NADPH, read-out: Global Ki, linear regression): 30900 nM
- Ki (CYP2C9 [6]; KM taken as 10 µM, 10 nM CYP, 100 µM diclofenac, 200 µM NADPH, read-out: Global Ki, non-linear regression): 2.8 nM
- Ki (CYP2C9 [6]; [8]): 243 nM
- Ki (CYP2C9 [6]; [9]): 2.6 nM
- Ki (CYP2C9 [6]; [10]): 995 nM
- Ki (CYP2C9 [6]; [11]): 9.1 nM
- Ki (CYP2C9 [6]; [I] 100 µM, read-out: Localized Ki, Chance equation): 190000 nM
- Ki (CYP2C9 [6]; [12]): 650 nM

Compound: Oc1c(Br)cccc1Br [DBP]
- Ki, Cheng-Prusoff method (in words) (CYP2E1 [1]): low nM ranges
- Inhibition at 100 µM ([3]; mixed microsomes, 100 µM): failed to give any inhibition
- Ki (CYP2C9 [6]; [11]): 2610 nM
- Localized Ki, Chance equation (CYP2C9 [6]; [I] 100 µM): -
- Localized Ki, Cheng-Prusoff equation (CYP2C9 [6]; [I] 100 µM): -
- Ki at 10 nM inhibitor (in words) (CYP2C9 [6]; CYP2C9 baculosome system, 10 nM): nanomolar
- Ki at 1 µM inhibitor (in words) (CYP2C9 [6]; CYP2C9 baculosome system, 1 µM): micromolar
- Inhibition at 100 µM (CYP2C9 [6]; CYP2C9 baculosome system, 100 µM): failed to give any inhibition

Compound: CCc1oc2ccccc2c1C(=O)c1cc(Br)c(OC)c(Br)c1 [MeOBzBr]
- Ki ([3]; read-out: Ki at 100 µM inhibitor, microsome setups, 100 µM inhibitor): 3700 nM

Compound: CCc1oc2ccccc2c1C(=O)c1ccc(OC)cc1 [MeOBzr]
- Ki ([3]; Microsomes+Diclof, 0.5 µM CYP, 200 µM diclofenac, 400 µM NADPH, read-out: Global Ki, linear regression): 242 nM
- Global Ki, linear regression (CYP2C9 [6]; [13]): -
- Global Ki, non-linear regression (CYP2C9 [6]; [14]): -

Compound: vitamin E [Vit. E]
- Ki (in words) (CYP2C9 [6]; baculosome reaction setup): ∼nM

More lines, now with the values ahead:

- Ki, Cheng-Prusoff method (in words) (CYP2E1 [1]): low nM ranges
- Ki derived from calculations (in words) [2]: Submicromolar
- Global Ki, linear regression [3, 7]: -
- Global Ki, non-linear regression [3, 7]: -
Compound: CCc1oc2ccccc2c1C(=O)c1cc(Br)c(O)c(Br)c1 [BzBr, benzbromarone]

- Ki, Cheng-Prusoff method (in words) (CYP2E1 [1]): low nM ranges
- Ki (CYP2C9 [6]; [8]): 6.4 nM
- Ki (CYP2C9 [6]; [10]): 97700 nM
- Ki (CYP2C9 [6]; [11]): 89.9 nM
- Ki (CYP2C9 [6]; [12]): 8680 nM
- Ki via non-linear regression (in words) (CYP2C9 [6]; CYP2C9 baculosomes): sub-nanomolar
- Ki via linear regression analysis (in words) (CYP2C9 [6]; CYP2C9 baculosomes, same experimental data): supra-millimolar
Compound: O=C(O)c1cc(Br)c(O)c(Br)c1 [DBHB]

- Ki, Cheng-Prusoff method (in words) (CYP2E1 [1]): low nM ranges
- Localized Ki, Chance equation (CYP2C9 [6]; [I] 0.01 µM): -
- Localized Ki, Cheng-Prusoff equation (CYP2C9 [6]; [I] 0.01 µM): -
- Ki (CYP2C9 [6]; [11]): 306 nM
- Ki (CYP2C9 [6]; [12]): 95400 nM
Compound: COc1cc(Br)c(O)c(Br)c1 [DBMP]

- Global Ki, linear regression (CYP2C9 [6]; [13]): -
- Global Ki, non-linear regression (CYP2C9 [6]; [14]): -
- Ki (CYP2C9 [6]; [8]): 5.5 nM
- Ki (CYP2C9 [6]; [9]): 0.7 nM
- Localized Ki, Chance equation (CYP2C9 [6]; [I] 1 µM): -
- Localized Ki, Cheng-Prusoff equation (CYP2C9 [6]; [I] 1 µM): -
- Ki (CYP2C9 [6]; [12]): 42600 nM
Compound: NC(Cc1cc(I)c(O)c(I)c1)C(=O)O (centres unmarked) [DIT]

- Global Ki, linear regression (CYP2C9 [6]; [13]): -
- Global Ki, non-linear regression (CYP2C9 [6]; [14]): -
Compound: CCc1oc2ccccc2c1C(=O)c1cc(I)c(OC)c(I)c1 [MeOBzIr]

- Relative percentage of hydroxylated product formed vs positive control (CYP2D6; 80 µM Diclof): 0.3%
- Relative percentage of hydroxylated product formed vs positive control (CYP2D6; 80 µM pNP): ∼15%
- Relative percentage of hydroxylated product formed vs positive control (CYP2E1 [1]; CYP2E1 baculosomes 20 nM, 80 µM pNP, inhibitor equivalent amount, 30 minutes): 15%
- Relative percentage of hydroxylated product formed vs positive control (CYP2C9 [6]; CYP2C9 baculosomes 20 nM, 80 µM Diclof, inhibitor equivalent amount, 250 µM NADPH, 30 minutes): 90.1%
- Relative percentage of hydroxylated product formed vs positive control (CYP3A4; 80 µM Diclof): 17%
- Relative percentage of hydroxylated product formed vs positive control (CYP3A4; 80 µM pNP): ∼15%
Compound: Benzothiadiazole
